Measured values as given in patent US10894798B2, “Substituted dihydropyrrolopyrazole derivative” (UBE INDUSTRIES, LTD., priority 2015, dated 2021).

Assays:
[1] = test system: human large intestine cancer cell (HCT 116) tumor; assay: Tumor growth inhibition test in HCT 116-subcutaneously transplanted nude mouse; assay type: in vivo; conditions: dose of 100 mg/kg, repeated oral administration, HCT-116 in female BALB nude mice, control group = 100%, read-out: rate of suppression of tumor volume
Protocol: A human large intestine cancer cell line (HCT-116) was cultured in a McCoy's 5A medium containing 10% FBS and 1% penicillin/streptomycin/amphotericin B and adjusted to 1.0×10^8 cells/mL with PBS or Hanks solution (HBSS(−)). The prepared cell suspension was subcutaneously injected at 0.1 mL/mouse to the right abdomens of female BALB nude mice (supplied by Charles River Laboratories Japan, Inc.). After rearing for a certain period, the long diameter (mm) and short diameter (mm) of tumor were measured with electronic calipers, and the tumor volume was calculated according to the following expression: Tumor volume (mm^3)=(Long diameter)×(Short diameter)×(Short diameter)×0.5
Individuals whose tumor volume was within the range of 50 to 200 mm^3 were selected and grouped such that the tumor volume was almost equivalent, then a test compound or only a solvent was orally administered in a repeated manner, and the body weights and tumor volume were measured. A test compound was suspended in a 0.5 w/v % aqueous methylcellulose solution (0.5% MC) (manufactured by Wako Pure Chemical Industries, Ltd.) and orally administered at 10 mL/kg in a repeated manner. When the tumor volume of the control group was defined as 100%, the rate of suppression of tumor volume (%) at each dose of the test compound was calculated.

CDK7 = target: T1, CDK7 (Homo sapiens, UniProt P50613); assay: CDK7 enzyme inhibition test; assay type: biochemical; conditions: [γ-33P]ATP, MBP substrate, 60 min preincubation at 25°C; Ki=IC50/(1+S/Km); read-out: Ki value of CDK7 inhibitory activity
T1 construct: purchased Carna Biosciences, Inc. 04-108
Summary of the method: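 Commercial human CDK7 with myelin basic protein substrate in HEPES pH 7.4 buffer with DTT, Triton X-100, MgCl2; compound preincubated 60 min at 25° C, then reaction run 20 min at 30° C after adding [γ-^33P]ATP (500 μM solution). TCA-precipitated ^33P-MBP counted by scintillation; IC50 converted to Ki via Ki=IC50/(1+S/Km).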

IL-17 production = assay: Human PBMC various-stimulant cocktail-induced IL-17 production inhibition test; assay type: cell-based; conditions: 120 h, human T-cell suspension from PBMC, culture for 5 days, ELISA
Excerpt: PBMC was separated and collected by using Ficoll-Paque (manufactured by GE Healthcare Japan Corp.) from blood collected from a healthy human adult in the presence of heparin. The collected PBMC was further cultured in a flask for a certain time, and then, non-adherent cells in the supernatant were collected and used as a T-cell suspension.
A RPMI1640 medium containing 10% FBS, 1% penicillin/streptomycin/amphotericin B, essential amino acids, and pyruvic acid and containing a test compound dissolved in DMSO, a human CD28 antibody, a human IFN-γ antibody, a human IL-4 antibody, human IL-6, human IL-23, human IL-1β, and human TGF-β was added at 100 μL/well to T cell Activation Plate Anti-Human CD3 96-well plate. Subsequently, 100 μL of a T-cell suspension adjusted to 2×10^5 cells/mL was added to each well (final DMSO concentration: 0.1%). Only DMSO was added to wells not supplemented with the test compound. After culture for 5 days in a carbon dioxide incubator, the culture supernatant was collected and stored at −20° C. until IL-17 content measurement.
In the measurement of an IL-17 content in the culture supernatant, a sandwich ELISA kit (Quantikine Human IL-17, manufactured by R&D Systems, Inc.) was used. The IL-17 content of each sample was calculated from the calibration curve of Standard IL-17 included in the kit. […] The concentration of the test compound necessary for inhibiting 50% of IL-17 production (IC50 value) was calculated from the concentration of the added test compound and the rate of inhibition of IL-17 production by the test compound by using EXSUS (version 8.1.0, manufactured by CAC Exicare Corp.).

T1 sequence (P50613 whole entry): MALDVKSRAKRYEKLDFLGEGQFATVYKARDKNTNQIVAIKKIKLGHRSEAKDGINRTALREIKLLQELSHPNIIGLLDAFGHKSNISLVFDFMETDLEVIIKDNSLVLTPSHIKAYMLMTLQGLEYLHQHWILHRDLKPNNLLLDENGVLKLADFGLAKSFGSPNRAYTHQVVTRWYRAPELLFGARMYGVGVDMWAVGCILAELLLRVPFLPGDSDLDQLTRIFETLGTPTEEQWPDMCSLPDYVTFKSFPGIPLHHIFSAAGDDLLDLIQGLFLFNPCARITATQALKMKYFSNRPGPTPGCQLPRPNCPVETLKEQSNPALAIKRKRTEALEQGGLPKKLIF
T1 sequence (P51946 whole entry partner): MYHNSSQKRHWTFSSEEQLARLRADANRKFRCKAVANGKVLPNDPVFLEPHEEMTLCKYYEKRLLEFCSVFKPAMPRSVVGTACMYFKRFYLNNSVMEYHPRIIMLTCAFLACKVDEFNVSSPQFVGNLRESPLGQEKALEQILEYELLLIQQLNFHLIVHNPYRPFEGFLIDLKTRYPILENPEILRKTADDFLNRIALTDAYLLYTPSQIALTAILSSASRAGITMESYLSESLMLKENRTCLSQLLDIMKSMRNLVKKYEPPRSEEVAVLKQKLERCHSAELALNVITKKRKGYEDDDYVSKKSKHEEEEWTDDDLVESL
T1 sequence (P51948 whole entry partner): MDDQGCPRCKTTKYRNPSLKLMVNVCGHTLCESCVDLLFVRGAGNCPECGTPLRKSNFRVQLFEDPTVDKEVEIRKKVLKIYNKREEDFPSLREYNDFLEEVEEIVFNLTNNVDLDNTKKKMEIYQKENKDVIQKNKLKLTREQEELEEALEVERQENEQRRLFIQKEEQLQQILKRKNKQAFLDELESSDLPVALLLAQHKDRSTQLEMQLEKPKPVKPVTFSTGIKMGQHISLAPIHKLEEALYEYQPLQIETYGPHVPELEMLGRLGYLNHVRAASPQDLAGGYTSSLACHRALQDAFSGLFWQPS

In the case of `Cc1cccc(Br)c1NC(=O)N1Cc2c(NC(=O)C3([Si](C)(C)C)CCC3)n[nH]c2C1(C)C` [IV-299, N-(2-Bromo-6-methylphenyl)-6,6-dimethyl-3-[1-(trimethylsilyl)cyclobutanecarboxamido]-4,6-dihydropyrrolo[3,4-c]pyrazole-5 (1H)-carboxamide], the inhibition in vivo at 100 mg/kg [1] is reported as ≥ 50%, the Ki (CDK7) is reported as ≤ 50 nM and the IC50 (IL-17 production) is reported as ≤ 100 nM.
